Measurements taken from US20220241263A1, “PD-1 AXIS BINDING ANTAGONIST TO TREAT CANCER WITH GENETIC MUTATIONS IN SPECIFIC GENES” (Ares Trading S.A., priority 2019, published 2022).
Where two headings read alike, the source gives them in different places.

Tests used:
[1] = in vivo; cited from earlier work
[2] = system: patients with advanced renal cell carcinoma
Source text: Transcript levels were quantitated by the Personalis ACE Cancer Transciptome Analysis pipeline which uses STAR version 2.4.2a-p1 to align reads to the NCBI hs37d5 annotation 105 reference genome and produces Transcripts Per Million (TPM) values for each gene. TPM values were log2 transformed for further analysis.
Weighted Gene Co-Expression Network Analysis (WGCNA) was used to find co-expressed modules in the 720 baseline transcriptomic samples. […] The soft power of 6 was chosen based on goodness of fit to a scale-free network. A signed WGCNA network was constructed in R^37 with mergeCutHeight set to 0.25 and reassignThreshold set to 0. After removing non-coding genes and modules with size <10, 25 modules were identified. Gene signature scores were computed from the average expression of genes in a module. Univariate Cox Proportional Hazards (Cox PH) model was used to assess the dependence of PFS on each gene signature, which was categorized into high vs low groups according to median signature score. Multivariate analysis was also carried out adjusting for age and sex. Modules were annotated through identifying top enriched gene sets via hypergeometric tests using public gene set collections including the MSigDB Hallmark, GO Biological Process and LM22.
To assess the robustness of identified gene modules, next was carried out a consensus WGCNA analysis. […] The soft power of 6 was chosen based on goodness of fit to a scale-free network. 720 baseline data were randomly subsampled down to 80% of samples for 1,000 times. With each subsampled dataset, we constructed a co-expression network using the WGCNA procedure as described above. An adjacency matrix was constructed by counting the frequencies two genes were clustered into the same network module. A consensus network was then constructed using the new adjacency matrix via the standard WGCNA approach. Edges were then filtered by adjacency measure of 0.8. Modules with size <10 were removed. Consensus WGCNA identified 23 modules. Hypergeometric tests were then carried out to annotate modules as described above.
To refine the 306-gene immune response module, we selected genes annotated for immune-related functionality and had univariate Cox PH p-value <0.01 in the combination arm.

[3] = system: patients with advanced RCC (aRCC); assay: Phase 3 clinical trial of avelumab in combination with axitinib versus sunitinib (NCT02684006); type: in vivo, human
Method: Patients will be stratified according to ECOG performance status (0 versus 1) and LDH (>1.5 ULN vs. ≤1.5 ULN). In arm A (avelumab in combination with axitinib), avelumab will be given as a 1 hour intravenous infusion (IV) every 2 weeks in a 6-week cycle. Axitinib will be given orally (PO) twice daily (BID), with or without food, on a continuous dosing schedule.
Axitinib treatment may be adjusted by dosing interruption with or without dose reduction. Intrapatient axitinib dose escalation may occur if the intrapatient escalation criteria are met.
Study Treatment: Axitinib will be given orally twice daily PO on a continuous daily dosing schedule. Avelumab will be given as a 1 hour intravenous infusion every 2 weeks in a 6-week cycle.
Tumor Assessments: Anti-tumor activity will be assessed by radiological tumor assessments and will be based on RECIST guidelines version 1.1 for primary and secondary endpoints and on immune-related RECIST (irRECIST) guidelines for exploratory endpoints. Tumor assessments will be performed every 6 weeks (Q6W) up to 1 year from first dose therapy; thereafter, tumor assessments will be performed every 2 cycles. […]

[4] = system: patients with advanced renal cell carcinoma; assay: CD8 immunohistochemistry study: PFS by number of CD8+ cells at the invasive margin in the phase 3 study; type: in vivo, human
Method: CD8 expression was assessed by immunohistochemistry using clone C8/144B and reported in terms of the number of CD8+ cells in relation to the total number of […] or at the invasive margin, with the median value as the cut point.

[5] = system: patients with advanced renal cell carcinoma; remark: listed apart in the source
Method: Tumor samples were collected from patients in Example 2 and were subject to whole exome sequencing to identify genetic mutations. Software tools BWA and a combination of MuTect, Vardict, Picard, and other vendor tools were used.
The Cox proportional hazards (PH) regression model was used to assess the dependence of progression-free survival (PFS) on mutational status of each gene. In addition, multivariate analysis was also carried out adjusting for age, sex and tumor mutation burden. […] Genes were filtered based on the following criteria: • A. Mutated at 5% or more in the B9991003 cohort • B. Interaction term P-value<0.05 in both model (1) and model (2), testing for treatment specific differences of the mutations on survival outcome. • C.

[6] = patients with CDL163L1 mutation
[7] = patients with CDL163L1 wild type
[8] = patients with LOC728763 mutation
[9] = patients with LOC728763 wild type
[10] = patients with SPATA31C2 mutation
[11] = patients with SPATA31C2 wild type

Compound: avelumab: an anti-PD-L1 IgG1 monoclonal antibody
- half-life [1]: 72 to 120 h

Compound: CCN(CC)CCNC(=O)c1c(C)[nH]c(/C=C2\C(=O)Nc3ccc(F)cc32)c1C [sunitinib]
- median PFS ([2]; greater than median expression of JAVELIN Renal 101 Immuno Signature): 8.3 months
- median PFS ([2]; less than median expression of JAVELIN Renal 101 Immuno Signature): 9.0 months
- HR for PFS by tumor mutational burden (TMB) ([2]; within treatment arm): 0.79
- HR for PFS, high expression of IMmotion 150 angiogenesis signature ([2]; within treatment arm): 0.64
- HR for PFS, high vs low JAVELIN Renal 101 Angiogenesis Signature ([2]; within treatment arm): 0.56
- HR for PFS, high vs low JAVELIN Renal 101 Immuno Signature ([2]; within treatment arm): 0.98
- patients had died ([3]; PD-L1-positive tumors, median follow-up for overall survival 11.6 and 10.7 months): 44 patients
- objective response rate ([3]; patients with PD-L1-positive tumors): 25.5%
- median PFS ([4]; high numbers of CD8+ cells at the invasive margin): 7.1 months
- median PFS ([4]; low numbers of CD8+ cells): 11.1 months
- HR for PFS, high vs low numbers of CD8+ cells at the invasive margin ([4]; within treatment arm): 1.42
- Rate of PFS at 15 months ([5]; patients with ABCA1 mutation): 25%
- Rate of PFS at 15 months ([5]; patients with ABCA1 wild type): 25%
- Rate of PFS at 20 months ([5]; patients with ABCA1 wild type): 25%
- Rate of PFS at 15 months ([5]; patients with ARVCF mutation): 43%
- Rate of PFS at 20 months ([5]; patients with ARVCF mutation): 39%
- Rate of PFS at 15 months ([5]; patients with ARVCF wild type): 22%
- Rate of PFS at 20 months ([5]; patients with ARVCF wild type): 22%
- Rate of PFS at 15 months [5, 6]: 15%
- Rate of PFS at 20 months [5, 6]: 15%
- Rate of PFS at 15 months [5, 7]: 25%
- Rate of PFS at 20 months [5, 7]: 25%
- Rate of PFS at 15 months ([5]; patients with DNMT1 mutation): 0%
- Rate of PFS at 20 months ([5]; patients with DNMT1 mutation): 0%
- Rate of PFS at 15 months ([5]; patients with DNMT1 wild type): 25%
- Rate of PFS at 20 months ([5]; patients with DNMT1 wild type): 25%
- Rate of PFS at 15 months ([5]; patients with FOXO1 mutation): 10%
- Rate of PFS at 20 months ([5]; patients with FOXO1 mutation): 10%
- Rate of PFS at 15 months ([5]; patients with FOXO1 wild type): 25%
- Rate of PFS at 20 months ([5]; patients with FOXO1 wild type): 25%
- Rate of PFS at 15 months ([5]; patients with IL16 mutation): 25%
- Rate of PFS at 20 months ([5]; patients with IL16 mutation): 25%
- Rate of PFS at 15 months ([5]; patients with IL16 wild type): 23%
- Rate of PFS at 20 months ([5]; patients with IL16 wild type): 23%
- Rate of PFS at 15 months [5, 8]: 25%
- Rate of PFS at 20 months [5, 8]: 25%
- Rate of PFS at 15 months [5, 9]: 23%
- Rate of PFS at 20 months [5, 9]: 23%
- Rate of PFS at 15 months ([5]; patients with MCR1 mutation): 30%
- Rate of PFS at 15 months ([5]; patients with MCR1 wild type): 30%
- Rate of PFS at 20 months ([5]; patients with MCR1 wild type): 30%
- Rate of PFS at 15 months ([5]; patients with MYH7B mutation): 10%
- Rate of PFS at 15 months ([5]; patients with MYH7B wild type): 25%
- Rate of PFS at 20 months ([5]; patients with MYH7B wild type): 25%
- Rate of PFS at 15 months ([5]; patients with PTEN mutation): 20%
- Rate of PFS at 15 months ([5]; patients with PTEN wild type): 25%
- Rate of PFS at 20 months ([5]; patients with PTEN wild type): 25%
- Rate of PFS at 15 months [5, 10]: 25%
- Rate of PFS at 20 months [5, 10]: 25%
- Rate of PFS at 15 months [5, 11]: 23%
- Rate of PFS at 20 months [5, 11]: 23%
- Rate of PFS at 15 months ([5]; patients with STAB2 mutation): 30%
- Rate of PFS at 20 months ([5]; patients with STAB2 mutation): 30%
- Rate of PFS at 15 months ([5]; patients with STAB2 wild type): 25%
- Rate of PFS at 20 months ([5]; patients with STAB2 wild type): 25%
